Results reported in ChEMBL document CHEMBL1157539, “Thousands of chemical starting points for antimalarial lead identification” (Nature, 2010).

System: Plasmodium falciparum
Test: GSK_TCMDC: Inhibition of Plasmodium falciparum 3D7 in whole erythrocytes, using parasite LDH activity as an index of growth.
Format: functional, organism-based
Settings: Plasmodium falciparum, 3D7

Compound	XC50
COc1cccc2c(N/N=C/c3ccccc3[N+](=O)[O-])cc(C)nc12	424 nM
CN(C)c1cc(NC(=O)Nc2ccccc2)c2ccccc2n1	405 nM
O=C(Cn1c(CCc2cccc(F)c2F)cc(=O)c2cccnc21)N(CCN1CCCC1)Cc1ccc(-c2ccc(C(F)(F)F)cc2)cc1	890 nM
CS(=O)(=O)c1ccc(-c2nc(NCC3CCCCC3)cc(C(F)(F)F)n2)cc1	667 nM
CCc1ccc(CN2CCC(CNC(=O)c3cc(-c4cccc(C(F)(F)F)c4)cs3)C2)cc1 (stereo not given)	753 nM
CCc1cn2c3c(cc(C(=O)N[C@@H](Cc4ccccc4)[C@H](O)CNC4CCOCC4)cc13)N(CC(F)(F)F)S(=O)(=O)CC2	29.6 nM
CN1CCN(c2ccnc3ccc(NC(=O)Nc4ccc(-c5ccncc5)c5ccccc45)cc23)CC1	312 nM
COCCN1CCC(NCC(C)(C)c2nc(-c3ccc(Cl)c(O)c3)c(-c3ccncc3)[nH]2)CC1	717 nM
N#Cc1nc2ccc(OCCN(Cc3ccccc3C(F)(F)F)c3ccc(C#N)c(C(F)(F)F)c3)cc2s1	855 nM
COc1cc2nc(N3CCN(C(=O)c4ccc(N(C(=O)OC(C)(C)C)C(=O)OC(C)(C)C)cc4)CC3)nc(N)c2cc1OC	1000 nM
COc1ccc(NC(=O)CSc2nc(-c3ccccc3Cl)ns2)cc1OC	759 nM
CC1(C)N=C(N)N=C(N)N1OCCCc1ccccc1	3.2 nM
CCCCCc1cnc2nc(N)nc(N)c2c1	1230 nM
O=C(Nc1ccccc1)Nc1cccc(-c2cc(CNCCc3ccccc3)sc2-c2ccncc2)c1	598 nM
Nc1nc(N)c2cc(Cc3ccccc3Cl)cnc2n1	106 nM
CC(=O)Nc1ccc(C2NC(=O)NC(c3ccccc3)=C2c2nc3ccccc3s2)cc1 (stereo not given)	1110 nM
COc1cccc2cc(C(=O)N[C@@H](CC(C)C)C(=O)N[C@H](C=NN3CCCC3=O)Cc3ccccc3)oc12	558 nM
CN(C)c1nc(NN=Cc2cc(Cl)ccc2O)nc(Nc2ccc(F)cc2)n1	837 nM
COc1ccc2nccc([C@@H](O)CN3CCC(NC(=O)c4ccc(-c5ccccc5)s4)CC3)c2c1	310 nM
CC(C)NCc1cccc(-c2cccc(NC(=O)c3ccc(C#N)cc3)c2)c1	646 nM
CC(C)(C)c1ccc(S(=O)(=O)Nc2ccccc2N2CCOCC2)cc1	683 nM
CCCc1cc(OCCCOc2ccccc2)ccc1OCCCON1C(=N)N=C(N)NC1(C)C	3.2 nM
CS(=O)(=O)CCNCc1cccc(-c2ccc3c(Nc4ccc(Oc5cccnc5)cc4)ccnc3c2)c1	142 nM
Cc1cccc(/C=C/C(=O)NC2CCC(N3CCC(c4ccccc4C)CC3)CC2)c1 (stereo not given)	1110 nM

Compound	XC50
CCc1c[nH]c2c(N(c3ccccc3)S(C)(=O)=O)cc(C(=O)N[C@@H](Cc3ccccc3)[C@H](O)CNCc3cccc(C(F)(F)F)c3)cc12	997 nM
CN(C)C(=O)c1ccc(CN(Cc2ccc3c(c2)OCCO3)Cc2ccc3c(c2)OCO3)cc1	175 nM
CCc1ccc(NC(=O)c2cccc(CN3CCCN(Cc4ccc(OC)cc4)CC3)c2)cc1	919 nM
COc1cccc(OC)c1CN1CCC(N(C)CCCCCCCCN2CCC(OC(=O)Nc3ccccc3-c3ccccc3)CC2)CC1	458 nM
O=C(/C=C/c1ccc(Cl)cc1)NCCCCCN1CCCN(C(=O)Nc2cccc(Cl)c2)CC1	1000 nM
Cc1ccc(/C=C/C(=O)NC2CCC(N3CCC(c4ccccc4C)CC3)CC2)cc1F (stereo not given)	1040 nM
CCCNCc1ccc(-c2ccc(CN(C(=O)c3nn(-c4ccccc4)nc3C)C3CC3)cc2)nc1	210 nM
Cn1cc(CCNc2ccnc(NCCc3coc4ccccc34)n2)c2ccccc21	1060 nM
Cc1cc(N[C@@H](CC(C)C)C(=O)NC2CCCC2)nc(NCc2ccccc2C)n1	1340 nM
CS(=O)(=O)c1ccc(Nc2ncc(-c3ccc(S(C)(=O)=O)cc3)c(OCC(F)(F)F)n2)cc1	401 nM
O=c1ccc2ccc(F)c3c2n1CC3CN1CCC(NCc2ccc(-c3cccc(Cl)c3)nc2)CC1 (stereo not given)	992 nM
COc1ccccc1C1CCN(C2CCC(NC(=O)/C=C/c3cc(C(F)(F)F)cc(C(F)(F)F)c3)CC2)CC1 (stereo not given)	1200 nM
CCCCc1cc(NCC)nc(Nc2ccc(F)cc2)n1	790 nM
O=c1cc(NCCCNCc2cc(Cl)cc(Cl)c2OCc2ccc(Cl)cc2)[nH]c2ccccc12	693 nM
N#Cc1ccc(N/C(=N\c2cccc(Cl)c2Cl)NCc2ccc(Cl)cc2Cl)c(O)c1	1120 nM
O=C(NC(Cc1ccccc1)C(=O)O)c1cc(=O)c2ccccc2o1 (stereo not given)	191 nM
O=C(Nc1ccc2c(c1)CCN2C1CCN(Cc2ccc(F)cc2Cl)C1)c1ccco1 (stereo not given)	470 nM
COc1ccccc1C1CCN(C2CCC(NC(=O)/C=C/c3cc(F)cc(F)c3)CC2)CC1 (stereo not given)	1110 nM
Cc1cc2nc(-c3cc(Br)ccc3O)c(-c3cc(Br)ccc3O)nc2cc1C	853 nM
Cc1ccccc1CN1CCCN(Cc2ccc(C(=O)Nc3ccc(C(C)(C)C)cc3)cc2)CC1	863 nM
COc1cc(Cl)c(C)cc1N(Cc1ccccc1-c1ccccc1)S(=O)(=O)c1ccc(C(F)(F)F)cc1	1050 nM
CC(C)c1ccc(NC(=O)Nc2ccc(CCNCCCc3ccccc3)cc2)cc1	761 nM
N#Cc1cccc(NC(=O)Nc2ccc3c(c2)CN(Cc2c[nH]c4ncccc24)C3)c1	800 nM
c1cc(C2=NC3CCCCC3N2)ccc1OCCCCCOc1ccc(C2=NC3CCCCC3N2)cc1 (stereo not given)	228 nM

Compound	XC50
O=[N+]([O-])c1ccccc1/C=N/Nc1ccnc2cc(Cl)ccc12	876 nM
Nc1nc(N)c2c(ccc3c2ccn3CC2CC2)n1	211 nM
COc1c(Br)cc(Br)cc1-c1ccc(CN2CC3CCC2CC3)[nH]1	693 nM
COc1cc(F)c2nccc([C@@H](O)CN3CCC(NC(=O)OCc4ccccc4)C(F)C3)c2c1 (stereo not given in full)	407 nM
COc1cc(CNCCCNc2nc3ncccc3[nH]2)c2[nH]cc(Br)c2c1	1160 nM
CCN1CCN(CCCNc2c3ccc(Cl)cc3nc3ccc(O)cc23)CC1	566 nM
CS(=O)(=O)c1ccc(CNCc2ccc(-c3cccc(-c4nc5cc(F)ccc5[nH]4)c3)cc2)cc1	315 nM
O=S(=O)(NC1CCN(c2ccnc3ccccc23)C1)c1ccc(OC(F)(F)F)cc1 (stereo not given)	1080 nM
CC(=O)Nc1ncc(C(=O)Nc2ccc(-c3cccc(-c4nc5cc(F)ccc5[nH]4)c3)cc2)s1	354 nM
Cc1ccc(NC(=O)NC2CCN(c3ccnc4cc(Cl)ccc34)C2)cc1 (stereo not given)	149 nM
Cc1ccc(Nc2cc(C)nn2-c2nc(C)cc(O)n2)cc1	864 nM
O=C(NCc1cccc2ccccc12)C(c1cc2ccccc2o1)N1CCN(C(c2ccccc2)c2ccccc2)CC1 (stereo not given)	667 nM
CC1(CCCCN2CCC(Cc3ccccc3)CC2)C(=O)Nc2ccccc21 (stereo not given)	855 nM
CCOC(=O)c1[nH]c2ccc(F)cc2c1NC(=O)CN1CCN(c2cccc(C(F)(F)F)c2)CC1	458 nM
CC(C)c1ccc(CN2CCC(NC(=O)c3ccc(-c4cccc(F)c4)s3)CC2)cc1	1330 nM
O=C(O)Cc1ccc(-c2c[nH]c3ncc(-c4cccc5ncccc45)cc23)cc1	847 nM
Fc1cccc(COc2ccc(Nc3ncnc4sc(C#C[C@H]5CC[C@H](CNCC(F)(F)F)N5)cc34)cc2Cl)c1	1420 nM
CN1CCC(OC(=O)c2cc3cc(-c4ccccc4)ccc3n2S(=O)(=O)c2ccccc2)CC1	1090 nM
CC(C)(C)c1ccc2[nH]c(-c3ccc(/C=C/C(=O)NCc4cccc(C(F)(F)F)c4)cc3)nc2c1	986 nM
Cc1ccc2[nH]c(-c3cc(-c4cccc(C#N)c4)cnc3N)nc2c1	117 nM
Cc1ccc(NC(=O)c2ccc(N3CCN(c4ccncc4)CC3)cn2)cc1F	1570 nM
COc1cc(NC(=O)c2cccs2)c(C(=O)NCc2ccc(C)cc2)cc1OC	1360 nM
